Laboratory results reported in ChEMBL document CHEMBL5154758, “Structure-Activity Relationship Study of Indolin-5-yl-cyclopropanamine Derivatives as Selective Lysine Specific Demethylase 1 (LSD1) Inhibitors” (J Med Chem, 2022).
Blank lines part the entries; values can stand above or below the compound they belong to. Active and inactive are the calls of the source. No cut-off for these calls is given here.

How the values were obtained:
[1] = biological target: T1, Amine oxidase [flavin-containing] A (Homo sapiens, UniProt P21397); experiment: biochemical
T1 sequence (P21397 whole entry): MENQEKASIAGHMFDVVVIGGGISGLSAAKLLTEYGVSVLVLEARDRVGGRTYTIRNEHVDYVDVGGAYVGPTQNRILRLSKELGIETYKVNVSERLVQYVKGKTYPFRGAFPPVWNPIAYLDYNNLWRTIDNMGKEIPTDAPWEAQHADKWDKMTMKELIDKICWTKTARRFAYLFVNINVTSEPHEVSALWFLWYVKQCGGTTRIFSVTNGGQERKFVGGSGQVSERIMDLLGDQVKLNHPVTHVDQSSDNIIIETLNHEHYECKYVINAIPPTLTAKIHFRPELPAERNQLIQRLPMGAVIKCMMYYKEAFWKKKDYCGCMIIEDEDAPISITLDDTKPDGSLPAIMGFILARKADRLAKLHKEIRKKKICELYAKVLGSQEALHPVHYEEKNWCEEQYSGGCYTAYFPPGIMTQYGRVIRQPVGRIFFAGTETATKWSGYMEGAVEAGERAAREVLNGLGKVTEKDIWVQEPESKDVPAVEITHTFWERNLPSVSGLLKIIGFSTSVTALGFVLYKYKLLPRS
Description: Inhibition of human recombinant MAO-A expressed in baculovirus infected BTI insect cells using luminogenic MAO substrate incubated for 1 hr by luciferin-based luminescence assay

[2] = biological target: T2, Amine oxidase [flavin-containing] B (Homo sapiens, UniProt P27338); experiment: biochemical
T2 sequence (P27338 whole entry): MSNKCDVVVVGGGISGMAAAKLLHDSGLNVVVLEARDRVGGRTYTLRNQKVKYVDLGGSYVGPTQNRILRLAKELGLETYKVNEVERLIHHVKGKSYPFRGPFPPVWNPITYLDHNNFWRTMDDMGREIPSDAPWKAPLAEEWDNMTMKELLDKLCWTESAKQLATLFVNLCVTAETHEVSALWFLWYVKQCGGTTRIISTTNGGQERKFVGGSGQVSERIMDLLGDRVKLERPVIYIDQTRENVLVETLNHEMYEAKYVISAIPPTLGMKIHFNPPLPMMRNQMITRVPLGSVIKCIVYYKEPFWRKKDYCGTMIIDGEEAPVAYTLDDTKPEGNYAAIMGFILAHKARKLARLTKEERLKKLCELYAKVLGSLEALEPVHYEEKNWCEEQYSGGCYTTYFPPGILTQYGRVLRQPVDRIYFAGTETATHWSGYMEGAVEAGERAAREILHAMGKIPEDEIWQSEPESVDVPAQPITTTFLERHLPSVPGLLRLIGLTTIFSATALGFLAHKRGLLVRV
Description: Inhibition of human recombinant MAO-B expressed in baculovirus infected BTI insect cells using luminogenic MAO substrate incubated for 1 hr by luciferin-based luminescence assay

MV4-11 [3] = experiment: Antiproliferative activity against human MV4-11 cells assessed as inhibition of cell growth incubated for 240 hrs by MTS assay; assay type: functional, cell-based; conditions: MV4-11, 240 h
[4] = Metabolic stability in rat hepatocytes at 3 uM incubated for 3 hrs by UPLC/Q-TOF MS analysis; assay type: ADME, cell-based, Hepatocyte
[5] = Drug metabolism in human liver microsomes assessed as N-acetyl M2 metabolite formation at 3 uM incubated for 3 hrs by UPLC/Q-TOF MS analysis; assay type: ADME, Microsome
MV4-11 [6] = experiment: In vivo antitumor activity against human MV4-11 cells xenografted in nu/nu mouse assessed as tumor volume at 20 mg/kg, po qd measured on day 15 (reference value: 959 +/- 111 mm3); assay type: functional; conditions: time 15 day
[7] = Metabolic stability in mouse hepatocytes at 3 uM incubated for 3 hrs by UPLC/Q-TOF MS analysis; assay type: ADME, cell-based, Hepatocyte
[8] = Drug metabolism in monkey liver microsomes assessed as amino dealkylation of parent compound causing M1 metabolite formation at 3 uM incubated for 3 hrs by UPLC/Q-TOF MS analysis; assay type: ADME, Macaca mulatta, Microsome; conditions: rhesus monkey
[9] = Cmax in ICR mouse at 20 mg/kg, po measured upto 24 hrs by LC-MS/MS analysis; assay type: ADME, organism-based; parameters: time < 24 hrs, dose 20 mg/kg, route po; conditions: in vivo
MV4-11 [10] = experiment: Induction of differentiation of human MV4-11 cells assessed as morphological changes by measuring segmented nucleus at 2.5 uM incubated for 240 hrs by Wright-Giemsa staining based microscopy; assay type: functional, cell-based
MV4-11 [11] = experiment: In vivo antitumor activity against human MV4-11 cells xenografted in nu/nu mouse assessed as tumor volume at 10 mg/kg, po qd measured on day 1 (reference value: 154 +/- 53 mm3); assay type: functional; conditions: time 1 day
MV4-11 [12] = experiment: Activation of CD86 expression in human MV4-11 cells incubated for 24 hrs by qRT-PCR analysis; assay type: functional, cell-based; conditions: MV4-11, 24 h
MV4-11 [13] = experiment: In vivo antitumor activity against human MV4-11 cells xenografted in nu/nu mouse assessed as tumor volume at 10 mg/kg, po qd measured on day 15 (reference value: 959 +/- 111 mm3); assay type: functional; conditions: time 15 day
MV4-11 [14] = experiment: In vivo antitumor activity against human MV4-11 cells xenografted in nu/nu mouse assessed as T/C ratio at 10 mg/kg, po qd measured after 15 days relative to control; assay type: functional; conditions: time 15 day
RPMI-8226 = experiment: Antiproliferative activity against human RPMI-8226 cells assessed as inhibition of cell growth incubated for 240 hrs by MTS assay; assay type: functional, cell-based; conditions: RPMI-8226, 240 h
MV4-11 [15] = experiment: Induction of differentiation of human MV4-11 cells assessed as morphological changes by measuring reduction in nuclear to cytoplasmic ratio at 2.5 uM incubated for 240 hrs by Wright-Giemsa staining based microscopy; assay type: functional, cell-based
[16] = Half life in ICR mouse at 20 mg/kg, po measured upto 24 hrs by LC-MS/MS analysis; assay type: ADME, organism-based; conditions: in vivo
MV4-11 [17] = experiment: In vivo antitumor activity against human MV4-11 cells xenografted in nu/nu mouse assessed as tumor volume at 20 mg/kg, po qd measured on day 1 (reference value: 154 +/- 53 mm3); assay type: functional; conditions: time 1 day
[18] = AUC (0 to infinity) in ICR mouse at 20 mg/kg, po measured upto 24 hrs by LC-MS/MS analysis; assay type: ADME, organism-based; parameters: dose 20 mg/kg, time < 24 hrs, route po; conditions: in vivo
MV4-11 [19] = experiment: In vivo antitumor activity against human MV4-11 cells xenografted in nu/nu mouse assessed as relative tumor volume at 10 mg/kg, po qd measured after 15 days (reference value: 6.85 +/- 1.84 ); assay type: functional; conditions: time 15 day
[20] = Drug metabolism in human liver microsomes assessed as amino dealkylation of parent compound causing M1 metabolite formation at 3 uM incubated for 3 hrs by UPLC/Q-TOF MS analysis; assay type: ADME, Microsome
MV4-11 [21] = experiment: In vivo antitumor activity against human MV4-11 cells xenografted in nu/nu mouse assessed as T/C ratio at 20 mg/kg,po qd measured after 15 days relative to control; assay type: functional; conditions: time 15 day
[22] = Metabolic stability in dog hepatocytes at 3 uM incubated for 3 hrs by UPLC/Q-TOF MS analysis; assay type: ADME, cell-based, Canis lupus familiaris, Hepatocyte
[23] = Drug metabolism in monkey liver microsomes assessed as N-acetyl M2 metabolite formation at 3 uM incubated for 3 hrs by UPLC/Q-TOF MS analysis; assay type: ADME, Macaca mulatta, Microsome; conditions: rhesus monkey
MV4-11 [24] = experiment: In vivo antitumor activity against human MV4-11 cells xenografted in nu/nu mouse assessed as relative tumor volume at 20 mg/kg, po qd measured after 15 days (reference value: 6.85 +/- 1.84 ); assay type: functional; conditions: time 15 day
MV4-11 [25] = experiment: Induction of differentiation of human MV4-11 cells assessed as morphological changes by measuring segmented nucleus at 5 uM incubated for 240 hrs by Wright-Giemsa staining based microscopy; assay type: functional, cell-based
MV4-11 [26] = experiment: Induction of differentiation of human MV4-11 cells assessed as morphological changes by measuring reduction in nuclear to cytoplasmic ratio at 5 uM incubated for 240 hrs by Wright-Giemsa staining based microscopy; assay type: functional, cell-based
[27] = biological target: T2, Amine oxidase [flavin-containing] B; experiment: Inhibition of human MAOB
[28] = biological target: T3, Lysine-specific histone demethylase 2 (Homo sapiens, UniProt Q8NB78); experiment: Inhibition of human LSD2
T3 sequence (Q8NB78 whole entry): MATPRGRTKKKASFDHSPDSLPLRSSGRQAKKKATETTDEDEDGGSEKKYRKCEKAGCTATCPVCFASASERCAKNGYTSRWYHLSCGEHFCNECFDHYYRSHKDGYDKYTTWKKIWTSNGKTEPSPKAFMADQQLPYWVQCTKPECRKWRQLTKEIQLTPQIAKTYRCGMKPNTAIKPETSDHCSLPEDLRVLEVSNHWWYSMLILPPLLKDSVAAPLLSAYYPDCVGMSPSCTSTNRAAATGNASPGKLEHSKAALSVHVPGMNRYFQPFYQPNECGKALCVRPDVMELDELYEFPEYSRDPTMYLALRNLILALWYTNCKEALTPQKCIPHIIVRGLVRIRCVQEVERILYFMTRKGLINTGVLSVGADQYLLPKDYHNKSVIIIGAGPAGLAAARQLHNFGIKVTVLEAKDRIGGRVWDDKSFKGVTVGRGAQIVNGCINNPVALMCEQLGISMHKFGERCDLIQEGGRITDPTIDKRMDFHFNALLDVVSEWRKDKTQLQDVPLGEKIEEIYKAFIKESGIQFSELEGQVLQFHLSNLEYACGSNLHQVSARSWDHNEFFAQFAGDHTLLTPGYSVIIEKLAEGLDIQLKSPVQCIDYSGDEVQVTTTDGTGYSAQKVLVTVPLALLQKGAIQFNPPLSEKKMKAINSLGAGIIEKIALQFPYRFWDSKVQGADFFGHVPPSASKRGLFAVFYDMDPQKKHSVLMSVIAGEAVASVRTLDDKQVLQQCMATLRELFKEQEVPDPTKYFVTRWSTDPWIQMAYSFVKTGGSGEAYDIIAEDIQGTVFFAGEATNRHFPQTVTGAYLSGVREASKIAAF

[29] = biological target: Lysine-specific histone demethylase 1A (Homo sapiens) (UniProt O60341); conditions: dose 300.0 nM, time 1.0 hrs
[30] = biological target: T1, Amine oxidase [flavin-containing] A; experiment: Inhibition of human MAOA
[31] = Upregulation of CD86 expression in human MV4-11 cells assessed as fold change in CD86 expression at IC50 incubated for 24 hrs by qRT-PCR analysis relative to control; assay type: functional
[32] = biological target: T3, Lysine-specific histone demethylase 2; experiment: Inhibition of recombinant human full length LSD2 using biotinylated H3K4Me2 peptide as substrate by TR-FRET assay
[33] = biological target: T3, Lysine-specific histone demethylase 2; experiment: Inhibition of human LSD2 using H3K4Me2 peptide as substrate incubated for 60 min by peroxidase-coupled method

SMILES: CCCCC(=O)N1CCc2cc(C3CC3NCC3CCNCC3)ccc21 (stereo not drawn)
IC50 [2]: > 100 µM
IC50 [1]: > 100 µM

SMILES: O=C(N[C@@H](CCCCNC1CC1c1ccccc1)C(=O)NCc1ccc(Cl)cc1)c1ccc(-c2ccccc2)cc1 (stereo partly drawn)
IC50 [2]: > 100 µM
IC50 [1]: > 100 µM

SMILES: O=C(O)c1ccc(CN2CCC(CN[C@@H]3C[C@H]3c3ccccc3)CC2)cc1 [GSK2879552]
Activity (MV4-11 [25]): Active
IC50 (MV4-11 [3]): 1.19 µM
IC50 [2]: > 100 µM
EC50 (MV4-11 [12]): 0.023 µM
IC50 (RPMI-8226): > 20 µM
Activity (MV4-11 [26]): Active
IC50 [27]: > 100 µM
IC50 [28]: > 100 µM
IC50 [1]: > 100 µM
inhibition [29]: Active
IC50 [30]: > 100 µM
fold change (FC) [31]: 10.15
IC50 [32]: > 100 µM

SMILES: CC(C)(C)C(=O)N1CCc2cc(C3CC3NCC3CCNCC3)ccc21 (trans isomer)
IC50 (MV4-11 [3]): 1.23 µM
IC50 (RPMI-8226): > 20 µM
IC50 [1]: > 100 µM

SMILES: N[C@@H]1C[C@H]1c1ccc(NC(=O)c2ccccc2)cc1
Ki [33]: 61 µM

SMILES: O=S(=O)(c1ccccc1)N1CCc2cc(C3CC3NC3CC4(CCNCC4)C3)ccc21 (trans isomer)
IC50 [2]: > 100 µM
IC50 [1]: > 100 µM

Second part, led by results:

IC50 [1]: 96.3 µM
SMILES: N[C@H]1CC[C@H](CNC2CC2c2ccc3c(c2)CCN3S(=O)(=O)c2ccccc2)CC1 (stereo partly drawn)

IC50 (MV4-11 [3]): 4.14 µM
IC50 [1]: > 100 µM
SMILES: O=C(c1ccccc1)N1CCc2cc(C3CC3NCC3CCNCC3)ccc21 (trans isomer)

Stability [4]: Stable
Drug metabolism [5]: Metabolite_Detected
Stability [7]: Stable
IC50 (MV4-11 [3]): 1.36 µM
Drug metabolism [8]: Metabolite_Detected
IC50 [2]: > 100 µM
Cmax [9]: 85.7 ng/mL
EC50 (MV4-11 [12]): 0.47 µM
IC50 (RPMI-8226): > 20 µM
half-life [16]: 5.32 h
AUC [18]: 619 ng·h/mL
Drug metabolism [20]: Metabolite_Detected
IC50 [1]: > 100 µM
Stability [22]: Stable
Drug metabolism [23]: Metabolite_Detected
SMILES: O=S(=O)(c1ccccc1)N1CCc2cc(C3CC3NCC3CCNCC3)ccc21 (stereo not drawn)
Activity (MV4-11 [6]): 334 mm3
Activity (MV4-11 [10]): Active
Activity (MV4-11 [11]): 156 mm3
Activity (MV4-11 [13]): 522 mm3
Activity (MV4-11 [14]): 52.29%
Activity (MV4-11 [15]): Active
Activity (MV4-11 [17]): 157 mm3
Activity (MV4-11 [19]): 3.58
Activity (MV4-11 [21]): 30.89%
Activity (MV4-11 [24]): 2.12

IC50 [2]: > 100 µM
SMILES: COc1cccc(S(=O)(=O)N2CCc3cc(C4CC4NCC4CCNCC4)ccc32)c1 (trans isomer)

IC50 [1]: > 100 µM
SMILES: O=S(=O)(c1ccc(-c2ccccc2)cc1)N1CCc2cc(C3CC3NCC3CCNCC3)ccc21 (trans isomer)
